According to PubChem BioAssay (NCI):
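Grown in 96-well plates, cells were treated for 48 hours with each compound at five concentrations. Insufficient inhibition: endpoint recorded as highest concentration tested. GI50: concentration for 50% inhibition of growth. At the TGI there is no net growth.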

How the values were obtained:
Test in all cases: NCI-60 cell line screen, 48 h
786-0 renal = system: 786-0 renal
A498 renal = system: A498 renal
A549 NSCLC = system: A549 NSCLC
ACHN renal = system: ACHN renal
CAKI-1 renal = system: CAKI-1 renal
CCRF-CEM leukemia = system: CCRF-CEM leukemia
COLO 205 colon = system: COLO 205 colon
DLD-1 colon = system: DLD-1 colon
DMS 114 small cell lung = system: DMS 114 small cell lung
DMS 273 small cell lung = system: DMS 273 small cell lung
EKVX NSCLC = system: EKVX NSCLC
HCC-2998 colon = system: HCC-2998 colon
HCT-116 colon = system: HCT-116 colon
HCT-15 colon = system: HCT-15 colon
HL-60(TB) leukemia = system: HL-60(TB) leukemia
HOP-18 NSCLC = system: HOP-18 NSCLC
HOP-62 NSCLC = system: HOP-62 NSCLC
HOP-92 NSCLC = system: HOP-92 NSCLC
HT29 colon = system: HT29 colon
IGROV1 ovarian = system: IGROV1 ovarian
K-562 leukemia = system: K-562 leukemia
KM12 colon = system: KM12 colon
KM20L2 colon = system: KM20L2 colon
LOX IMVI melanoma = system: LOX IMVI melanoma
M14 melanoma = system: M14 melanoma
M19-MEL melanoma = system: M19-MEL melanoma
MALME-3M melanoma = system: MALME-3M melanoma
MOLT-4 leukemia = system: MOLT-4 leukemia
NCI-H226 lung = system: NCI-H226 lung
NCI-H23 lung = system: NCI-H23 lung
NCI-H460 lung = system: NCI-H460 lung
NCI-H522 lung = system: NCI-H522 lung
OVCAR-3 ovarian = system: OVCAR-3 ovarian
OVCAR-4 ovarian = system: OVCAR-4 ovarian
OVCAR-5 ovarian = system: OVCAR-5 ovarian
OVCAR-8 ovarian = system: OVCAR-8 ovarian
RPMI-8226 leukemia = system: RPMI-8226 leukemia
RXF 393 renal = system: RXF 393 renal
SF-268 CNS = system: SF-268 CNS
SF-295 CNS = system: SF-295 CNS
SF-539 CNS = system: SF-539 CNS
SK-MEL-2 melanoma = system: SK-MEL-2 melanoma
SK-MEL-28 melanoma = system: SK-MEL-28 melanoma
SK-MEL-5 melanoma = system: SK-MEL-5 melanoma
SK-OV-3 ovarian = system: SK-OV-3 ovarian
SN12C renal = system: SN12C renal
SNB-19 CNS = system: SNB-19 CNS
SNB-75 CNS = system: SNB-75 CNS
SNB-78 CNS = system: SNB-78 CNS
SR leukemia = system: SR leukemia
SW-620 colon = system: SW-620 colon
TK-10 renal = system: TK-10 renal
U251 CNS = system: U251 CNS
UACC-257 melanoma = system: UACC-257 melanoma
UACC-62 melanoma = system: UACC-62 melanoma
UO-31 renal = system: UO-31 renal
XF 498 CNS = system: XF 498 CNS

C1OC1CO[C@@H]1CO[C@H]2[C@@H]1OC[C@H]2OCC1CO1 (stereo partly drawn)
TGI (786-0 renal): > 100000 nM | TGI (A498 renal): > 100000 nM | TGI (A549 NSCLC): > 100000 nM | TGI (ACHN renal): > 100000 nM | TGI (CAKI-1 renal): > 100000 nM | TGI (CCRF-CEM leukemia): > 100000 nM | TGI (COLO 205 colon): > 100000 nM | TGI (DLD-1 colon): > 100000 nM | TGI (DMS 114 small cell lung): > 100000 nM | TGI (DMS 273 small cell lung): > 100000 nM | TGI (EKVX NSCLC): > 100000 nM | TGI (HCC-2998 colon): > 100000 nM | TGI (HCT-116 colon): > 100000 nM | TGI (HCT-15 colon): > 100000 nM | TGI (HL-60(TB) leukemia): > 100000 nM | TGI (HOP-18 NSCLC): > 100000 nM | TGI (HOP-62 NSCLC): > 100000 nM | TGI (HOP-92 NSCLC): > 100000 nM | TGI (HT29 colon): > 100000 nM | TGI (IGROV1 ovarian): > 100000 nM | TGI (K-562 leukemia): > 100000 nM | TGI (KM12 colon): > 100000 nM | TGI (KM20L2 colon): > 100000 nM | TGI (LOX IMVI melanoma): > 100000 nM | TGI (M14 melanoma): > 100000 nM | TGI (M19-MEL melanoma): > 100000 nM | TGI (MALME-3M melanoma): > 100000 nM | TGI (MOLT-4 leukemia): > 100000 nM | TGI (NCI-H226 lung): > 100000 nM | TGI (NCI-H23 lung): > 100000 nM | TGI (NCI-H460 lung): > 100000 nM | TGI (NCI-H522 lung): > 100000 nM | TGI (OVCAR-3 ovarian): > 100000 nM | TGI (OVCAR-4 ovarian): > 100000 nM | TGI (OVCAR-5 ovarian): > 100000 nM | TGI (OVCAR-8 ovarian): > 100000 nM | TGI (RPMI-8226 leukemia): > 100000 nM | TGI (RXF 393 renal): > 100000 nM | TGI (SF-268 CNS): > 100000 nM | TGI (SF-295 CNS): > 100000 nM | TGI (SF-539 CNS): > 100000 nM | TGI (SK-MEL-2 melanoma): > 100000 nM | TGI (SK-MEL-28 melanoma): > 100000 nM | TGI (SK-MEL-5 melanoma): > 100000 nM | TGI (SK-OV-3 ovarian): > 100000 nM | TGI (SN12C renal): > 100000 nM | TGI (SNB-19 CNS): > 100000 nM | TGI (SNB-75 CNS): > 100000 nM | TGI (SNB-78 CNS): > 100000 nM | TGI (SR leukemia): > 100000 nM | TGI (SW-620 colon): > 100000 nM | TGI (TK-10 renal): > 100000 nM | TGI (U251 CNS): > 100000 nM | TGI (UACC-257 melanoma): > 100000 nM | TGI (UACC-62 melanoma): > 100000 nM | TGI (UO-31 renal): > 100000 nM | TGI (XF 498 CNS): > 100000 nM

O=C(N/N=C/c1cc(Cl)cc(Cl)c1[O-])c1ccccc1O.O=C(N/N=C/c1cc(Cl)cc(Cl)c1[O-])c1ccccc1O.[Ni+2]
GI50 (A549 NSCLC): 402 nM | TGI (A549 NSCLC): 3330 nM | TGI (ACHN renal): 2210 nM | TGI (CAKI-1 renal): 1410 nM | GI50 (COLO 205 colon): 794 nM | TGI (COLO 205 colon): 11600 nM | GI50 (EKVX NSCLC): 1330 nM | TGI (EKVX NSCLC): 5280 nM | TGI (HCC-2998 colon): 1560 nM | GI50 (HCT-116 colon): 439 nM | TGI (HCT-116 colon): 1500 nM | TGI (HCT-15 colon): 1920 nM | TGI (HL-60(TB) leukemia): 472 nM | TGI (HOP-62 NSCLC): 2090 nM | GI50 (HOP-92 NSCLC): 495 nM | TGI (HOP-92 NSCLC): 1790 nM | TGI (HT29 colon): 3400 nM | TGI (IGROV1 ovarian): 1740 nM | TGI (K-562 leukemia): 17400 nM | GI50 (KM12 colon): 494 nM | TGI (KM12 colon): 5660 nM | GI50 (KM20L2 colon): 794 nM | TGI (KM20L2 colon): 2150 nM | TGI (LOX IMVI melanoma): 1810 nM | TGI (M14 melanoma): 1840 nM | GI50 (MALME-3M melanoma): 759 nM | TGI (MALME-3M melanoma): 2360 nM | TGI (MOLT-4 leukemia): 29700 nM | TGI (NCI-H226 lung): 923 nM | GI50 (NCI-H23 lung): 456 nM | TGI (NCI-H23 lung): 1710 nM | TGI (NCI-H460 lung): 1730 nM | TGI (NCI-H522 lung): 823 nM | TGI (OVCAR-3 ovarian): 835 nM | TGI (OVCAR-4 ovarian): 1210 nM | TGI (OVCAR-5 ovarian): 1090 nM | TGI (OVCAR-8 ovarian): 1410 nM | TGI (RXF 393 renal): 2100 nM | TGI (SF-268 CNS): 18500 nM | TGI (SF-295 CNS): 1240 nM | GI50 (SF-539 CNS): 297 nM | TGI (SF-539 CNS): 1160 nM | GI50 (SK-MEL-2 melanoma): 329 nM | TGI (SK-MEL-2 melanoma): 1350 nM | TGI (SK-MEL-28 melanoma): 2090 nM | TGI (SK-MEL-5 melanoma): 1180 nM | TGI (SK-OV-3 ovarian): 3930 nM | TGI (SNB-19 CNS): 8850 nM | TGI (SNB-75 CNS): 7480 nM | TGI (SR leukemia): 1460 nM | TGI (SW-620 colon): 1970 nM | TGI (TK-10 renal): 7810 nM | TGI (U251 CNS): 1980 nM | TGI (UACC-257 melanoma): 2670 nM | TGI (UACC-62 melanoma): 693 nM | TGI (UO-31 renal): 10100 nM
